Calls of active or inactive are those of the source. The calls are words filed in the database; no cut-off is given here.
Tests used:
NCI-H1975 [1] = assay: Downregulation of c-Met expression in human NCI-H1975 cells incubated for 72 hrs by Western blot analysis; assay type: functional, cell-based; conditions: dose <= 1000.0 nM
A549 [2] = assay: Induction of cell cycle arrest in human A549 cells assessed as accumulation of cells at G1 phase at 0.5 uM measured for 24 hrs by PI/Rnase staining based flow cytometry (reference value: 75.2 %); assay type: functional
A549 [3] = assay: Induction of cell cycle arrest in human A549 cells assessed as accumulation of cells at G2 phase at 1 uM measured for 24 hrs by PI/Rnase staining based flow cytometry (reference value: 13.4 %); assay type: functional
A549 [4] = assay: Induction of cell cycle arrest in human A549 cells assessed as accumulation of cells at G2 phase at 2 uM measured for 24 hrs by PI/Rnase staining based flow cytometry (reference value: 13.4 %); assay type: functional
NCI-H1975 [5] = assay: Induction of cell cycle arrest in human NCI-H1975 cells assessed as accumulation of cells at G1 phase at 1 uM measured for 24 hrs by PI/Rnase staining based flow cytometry (reference value: 79.2 %); assay type: functional
NCI-H1975 [6] = assay: Induction of cell cycle arrest in human NCI-H1975 cells assessed as accumulation of cells at G1 phase at 2 uM measured for 24 hrs by PI/Rnase staining based flow cytometry (reference value: 79.2 %); assay type: functional
NCI-H1975 [7] = assay: Induction of cell cycle arrest in human NCI-H1975 cells assessed as accumulation of cells at G2 phase at 2 uM measured for 24 hrs by PI/Rnase staining based flow cytometry (reference value: 14.8 %); assay type: functional
A549 [8] = assay: Induction of apoptosis in human A549 cells assessed as late apoptotic cells at 0.5 uM incubated for 24 hrs by Annexin V-FITC/PI staining based flow cytometry analysis (reference value: 2.56 %); assay type: functional
A549 [9] = assay: Induction of apoptosis in human A549 cells assessed as late apoptotic cells at 1 uM incubated for 24 hrs by Annexin V-FITC/PI staining based flow cytometry analysis (reference value: 2.56 %); assay type: functional
A549 [10] = assay: Induction of apoptosis in human A549 cells assessed as viable cells at 2 uM incubated for 24 hrs by Annexin V-FITC/PI staining based flow cytometry analysis (reference value: 91.3%); assay type: functional; conditions: read-out: Activity
A549 [11] = assay: Induction of apoptosis in human A549 cells assessed as necrotic cells at 2 uM incubated for 24 hrs by Annexin V-FITC/PI staining based flow cytometry analysis (reference value: 4.37 %); assay type: functional
NCI-H1975 [12] = assay: Induction of apoptosis in human NCI-H1975 cells assessed as early apoptotic cells at 0.5 uM incubated for 24 hrs by Annexin V-FITC/PI staining based flow cytometry analysis (reference value: 0.35 %); assay type: functional
NCI-H1975 [13] = assay: Induction of apoptosis in human NCI-H1975 cells assessed as late apoptotic cells at 0.5 uM incubated for 24 hrs by Annexin V-FITC/PI staining based flow cytometry analysis (reference value: 2.27 %); assay type: functional
NCI-H1975 [14] = assay: Induction of apoptosis in human NCI-H1975 cells assessed as viable cells at 1 uM incubated for 24 hrs by Annexin V-FITC/PI staining based flow cytometry analysis (reference value: 90.1 %); assay type: functional; conditions: read-out: Activity
NCI-H1975 [15] = assay: Induction of apoptosis in human NCI-H1975 cells assessed as early apoptotic cells at 1 uM incubated for 24 hrs by Annexin V-FITC/PI staining based flow cytometry analysis (reference value: 0.35 %); assay type: functional
NCI-H1975 [16] = assay: Induction of apoptosis in human NCI-H1975 cells assessed as necrotic cells at 1 uM incubated for 24 hrs by Annexin V-FITC/PI staining based flow cytometry analysis (reference value: 7.33 %); assay type: functional
NCI-H1975 [17] = assay: Induction of apoptosis in human NCI-H1975 cells assessed as necrotic cells at 2 uM incubated for 24 hrs by Annexin V-FITC/PI staining based flow cytometry analysis (reference value: 7.33 %); assay type: functional
A549 [18] = assay: Antiproliferative activity against human A549 cells assessed as inhibition of cell growth incubated for 3 days by CCK-8 assay; assay type: functional, cell-based; conditions: time 3.0 day
NCI-H1975 [19] = assay: Antiproliferative activity against human NCI-H1975 cells assessed as inhibition of cell growth incubated for 3 days by CCK-8 assay; assay type: functional, cell-based; conditions: time 3.0 day
NCI-H1975 [20] = assay: Inhibition of colony formation in human NCI-H1975 cells incubated for 2 weeks by crystal violet staining based analysis; assay type: functional, cell-based; conditions: dose 0.5-2 µM
NCI-H1975 [21] = assay: Inhibition of cell migration in human NCI-H1975 cells incubated for 12 hrs by crystal violet staining based analysis; assay type: functional; conditions: dose 0.5-2 µM
NCI-H1975 [22] = assay: Inhibition of cell invasion in human NCI-H1975 cells incubated for 12 hrs; assay type: functional, cell-based; conditions: dose 0.5-2 µM
A549 [23] = assay: Inhibition of c-MET expression in human A549 cells up to 2000 nM by Western blot analysis; assay type: functional, cell-based
NCI-H1975 [24] = assay: Antiproliferative activity against MET knockdown human NCI-H1975 cells assessed as inhibition of cell growth by CCK-8 assay; assay type: functional, cell-based
A549 [25] = assay: Antiproliferative activity against MET knockdown human A549 cells assessed as inhibition of cell growth by CCK-8 assay; assay type: functional, cell-based
A549 [26] = assay: Antitumor activity against human A549 cells xenografted in BALB/c mouse assessed as tumor growth inhibition at 40 mg/kg, po administered once a day and measured up to 24 days; assay type: functional; conditions: A549, 576 h, time <= 24 day, read-out: TGI
A549 [27] = assay: Antitumor activity against human A549 cells xenografted in BALB/c mouse assessed as reduction in ki67 expression in tumor at 40 mg/kg, po administered once a day and measured up to 24 days by […] based analysis; assay type: functional, organism-based; conditions: time <= 24.0 day
[28] = Toxicity in BALB/c mouse xenografted with human A549 cells assessed as body weight loss at 20 mg/kg, po administered once a day and measured after 20 days; assay type: organism-based; conditions: in vivo, 480 h, time 20 day
[29] = Toxicity in BALB/c mouse xenografted with human A549 cells assessed as liver damage at 20 mg/kg, po administered once a day and measured after 20 days by H and E staining based analysis; assay type: organism-based; conditions: in vivo, 480 h, time 20 day
[30] = Toxicity in BALB/c mouse xenografted with human A549 cells assessed as liver damage at 40 mg/kg, po administered once a day and measured after 20 days by H and E staining based analysis; assay type: organism-based; conditions: in vivo, 480 h, time 20 day
[31] = Toxicity in BALB/c mouse xenografted with human A549 cells assessed as spleen damage at 20 mg/kg, po administered once a day and measured after 40 days by H and E staining based analysis; assay type: organism-based; conditions: in vivo, 960 h, time 40 day
[32] = Acute toxicity in Sprague-Dawley rat assessed as lung damage at 500 to 2000 mg/kg, po measured every 2 days by H and E staining based analysis; assay type: organism-based; conditions: in vivo, 48 h, dose 500-2000 mg/kg, time 2 day
BaF3 [33] = assay: Antiproliferative activity against mouse BaF3 cells harboring TPR-MET L1195V mutant incubated for 24 hrs by CCK-8 assay; assay type: functional, cell-based; conditions: BaF3, 24 h
BaF3 [34] = assay: Antiproliferative activity against mouse BaF3 cells harboring TPR-MET […] mutant incubated for 24 hrs by CCK-8 assay; assay type: functional, cell-based; conditions: BaF3, 24 h
BaF3 [35] = assay: Antiproliferative activity against mouse BaF3 cells harboring TPR-MET D1228N mutant incubated for 24 hrs by CCK-8 assay; assay type: functional, cell-based; conditions: BaF3, 24 h

With `COc1cccc(-c2ccc(-c3nc4c5cccnc5c5ncccc5c4[nH]3)o2)c1` the Activity (NCI-H1975 [1]) was “Dose-dependent-effect”, the Activity (A549 [2]) was 75.4% and the Activity (A549 [3]) was 10.4%. It also gave an Activity (A549 [4]) of 9.06%, an Activity (NCI-H1975 [5]) of 82.1% and an Activity (NCI-H1975 [6]) of 84.2%. The Activity (NCI-H1975 [7]) was 11%, the Activity (A549 [8]) was 7.9% and the Activity (A549 [9]) was 10.8%. The viability at 2 µM (A549 [10]) was 57.4%, the Activity (A549 [11]) was 6.99% and the Activity (NCI-H1975 [12]) was 2.01%. For the same compound, the Activity (NCI-H1975 [13]) was 8.12%, the viability at 1 µM (NCI-H1975 [14]) was 83.6% and the Activity (NCI-H1975 [15]) was 2.2%. For the same compound, the Activity (NCI-H1975 [16]) was 4.06%, the Activity (NCI-H1975 [17]) was 3.94% and the Activity (A549 [18]) was “Active”. The Activity (NCI-H1975 [19]) was “Active”, the inhibition (NCI-H1975 [20]) was “Dose-dependent-effect” and the inhibition (NCI-H1975 [21]) was “Dose-dependent-effect”. For the same compound, the inhibition (NCI-H1975 [22]) was “Dose-dependent-effect”, the inhibition (A549 [23]) was “Active” and the Activity (NCI-H1975 [24]) was “Active”. The Activity (A549 [25]) was “Active”, the inhibition in vivo at 40 mg/kg (A549 [26]) was 62.4% and the Activity (A549 [27]) was “Active”. For the same compound, the Activity [28] was “Non-toxic”, the Activity [29] was “Non-toxic” and the Activity [30] was “Non-toxic”. For the same compound, the Activity [31] was “Non-toxic”, the Activity [32] was “Non-toxic” and the IC50 (BaF3 [33]) was 510 nM. It also gave an IC50 (BaF3 [34]) of 620 nM and an IC50 (BaF3 [35]) of 400 nM.

From ChEMBL document CHEMBL6182924, “Discovery of a Novel and Potent MET Transcription Inhibitor Targeting Promoter G-Quadruplex for the Treatment of NSCLC” (J Med Chem, 2025)
